# Experimental data from the RepoRT retention time repository.
# Counter-ions that a name gives are not always drawn.
# Test: HILIC, Merck SeQuant ZIC-HILIC, 25 °C, 0.25 mL/min; A: water + 16 mM ammonium formate; B: acetonitrile + 0.1% formic acid, pH 3; gradient (min/%B) 0/97 2/97 10/70 15/10 17/10 18/97 25/97
# Conditions: stereoisomer not certain
row,Structure (SMILES),LC retention time
1,NCCc1c[nH]c2ccccc12 [TRYPTAMINE],10.5 min
2,O=c1[nH]c(=O)c2ncn(C3OC(CO)C(O)C3O)c2[nH]1 (stereo unspecified) [XANTHOSINE],10.4 min
3,CC1OC(OCC2OC(Oc3c(-c4ccc(O)c(O)c4)oc4cc(O)cc(O)c4c3=O)C(O)C(O)C2O)C(O)C(O)C1O (stereo unspecified) [rutin hydrate],10.6 min
4,O=C(O)C(COP(=O)(O)O)OP(=O)(O)O [2-3-DIPHOSPHO-D-GLYCERIC ACID],15.7 min
5,O=C(O)c1ccc(O)c(O)c1 [3-4-DIHYDROXYBENZOATE],2.14 min
6,CCCCCCCCCCCCCCCCCC(=O)OCC(O)COP(=O)(O)OCCN (stereo unspecified) [18-0_LysoPE],10.2 min
7,NCCCCNCCCN [SPERMIDINE],19.5 min
8,COC(=O)C(=O)OC [Dimethyl oxalate],2.24 min
9,Nc1ccn(C2CC(O)C(COP(=O)(O)O)O2)c(=O)n1 (stereo unspecified) [DEOXYCYTIDINE MONOPHOSPHATE],14.5 min
10,O=C(C=Cc1ccc(O)c(O)c1)OC(Cc1ccc(O)c(O)c1)C(=O)O (stereo unspecified) [ROSMARINATE],8.82 min
11,CC1C(=O)Nc2ccccc21 (stereo unspecified) [3-METHYL-2-OXINDOLE],1.73 min
12,Nc1ncnc2c1ncn2C1OC(COP(=O)(O)OP(=O)(O)OC2OC(CO)C(O)C(O)C2O)C(O)C1O (stereo unspecified) [ADP-GLUCOSE],14.7 min
13,Cc1ncc(CO)c(CO)c1O [PYRIDOXINE],10.4 min
14,NCCC(=O)O [BETA-ALANINE],14.1 min
15,CC(=O)OCC(N)C(=O)O (stereo unspecified) [O-ACETYLSERINE],12.4 min
16,OCC(O)c1ccc(O)c(O)c1 (stereo unspecified) [3-4-DIHYDROXYPHENYLGLYCOL],8.79 min
17,NC(CS)C(=O)NCC(=O)O (stereo unspecified) [CYS-GLY_2M],16.3 min
18,CCCCC(N)C(=O)O (stereo unspecified) [NORLEUCINE],11.2 min
19,NCCCCN [PUTRESCINE],17.4 min
20,"CN1C2CC(OC(=O)C(CO)c3ccccc3)CC1C1OC12 (single isomer, unassigned; (-)) [(-)-Scopolamine hydrochloride]",9.99 min
21,O=C(O)Cc1cccc(O)c1 [3-HYDROXYPHENYLACETATE],2.15 min
22,CC(=O)C1C(=O)C=C(C)OC1=O (stereo unspecified) [Dehydroacetic acid],1.56 min

row,Structure (SMILES),LC retention time
1,C[C@@H](O)[C@H](N)C(=O)O [L-Threonine],13.7 min
2,O=c1[nH]cnc2nc[nH]c12 [HYPOXANTHINE],8.77 min
3,OCC1OC(OCC2OC(OCC3OC(OC4(CO)OC(CO)C(O)C4O)C(O)C(O)C3O)C(O)C(O)C2O)C(O)C(O)C1O (stereo unspecified) [STACHYOSE],15.1 min
4,O=C(O)c1ccccc1O [SALICYLATE],1.81 min
5,OCC1OC(OCC2OC(O)(CO)C(O)C2O)C(O)C(O)C1O (stereo unspecified) [PALATINOSE],13.6 min
6,OCc1ccccc1O [2-Hydroxybenzyl alcohol ( Salicyl alcohol- Saligenin)],1.95 min
7,CC(=O)NC(CO)C(=O)O (stereo unspecified) [N-ACETYLSERINE],8.33 min
8,Nc1ccn(C2OC(COP(=O)(O)OP(=O)(O)O)C(O)C2O)c(=O)n1 (stereo unspecified) [CYTIDINE DIPHOSPHATE],15.4 min
9,NC(CCSSCCC(N)C(=O)O)C(=O)O (stereo unspecified) [HOMOCYSTINE],15 min
10,Nc1ncnc2c1ncn2C1OC(COP(=O)(O)OP(=O)(O)OP(=O)(O)O)C(O)C1O (stereo unspecified) [ADENOSINE TRIPHOSPHATE],15.5 min
11,Cn1cnc(C[C@H](N)C(=O)O)c1 [1-METHYL-L-HISTIDINE],15.8 min
12,CCCCCCCCCCCCCC(=O)OC(CO)COP(=O)(O)OCCN (stereo unspecified) [14-0_LysoPE],10.3 min
13,O=P(O)(O)OCC1OC(OP(=O)(O)OP(=O)(O)O)C(O)C1O (stereo unspecified) [PHOSPHORIBOSYL PYROPHOSPHATE],15.7 min
14,NC(N)=NCCC[C@H](N)C(=O)O [L-Arginine],16 min
15,CC(C)(COP(=O)(O)OP(=O)(O)OCC1OC(n2cnc3c(N)ncnc32)C(O)C1OP(=O)(O)O)C(O)C(=O)NCCC(=O)NCCS (stereo unspecified) [COENZYME A],14.3 min
16,Nc1nc2c(ncn2C2CC(O)C(COP(=O)(O)OP(=O)(O)O)O2)c(=O)[nH]1 (stereo unspecified) [DGDP],15.2 min
17,Cc1ncc(C[n+]2csc(CCO)c2C)c(N)n1 [THIAMINE],14.3 min
18,Cn1c(=O)[nH]c2nc[nH]c2c1=O [1-Methylxanthine],2.14 min
19,COC(=O)Cc1c[nH]c2ccccc12 [INDOLE-3-METHYL ACETATE],1.61 min
20,Cc1cn(C2CC(O)C(COP(=O)(O)OP(=O)(O)OC3OC(CO)C(O)C(O)C3O)O2)c(=O)[nH]c1=O [DTDP-D-GLUCOSE],14.4 min
21,O=C(O)c1cccnc1 [Nicotinic acid],2.81 min
22,Cc1ccc(O)c(O)c1 [4-METHYLCATECHOL],1.84 min

row,Structure (SMILES),LC retention time
1,O=C(O)C(=O)Cc1c[nH]c2ccccc12 [INDOLE-3-PYRUVATE],1.88 min
2,O=C(O)CCC(=O)O [succinic acid],2.19 min
3,Cc1ncc(C[n+]2csc(CCOP(=O)([O-])OP(=O)(O)O)c2C)c(N)n1 [THIAMINE PYROPHOSPHATE],16.5 min
4,NC(N)=NC(CC(=O)O)C(=O)O (stereo unspecified) [GUANIDINOSUCCINATE],14.4 min
5,O=C([O-])c1cc(=O)[nH]c(=O)[nH]1 [OROTATE],10.9 min
6,NC(=O)[C@@H](N)Cc1c[nH]c2ccccc12 [L-TRYPTOPHANAMIDE],11.7 min
7,C=CC1=C(C)C(C=c2[nH]c(=Cc3[nH]c(C=C4NC(=O)C(C)=C4C=C)c(C)c3CCC(=O)O)c(CCC(=O)O)c2C)=NC1=O [BILIVERDIN],2.06 min
8,OCCc1c[nH]c2ccccc12 [INDOLE-3-ETHANOL],1.82 min
9,NC(CSSCC(N)C(=O)O)C(=O)O (stereo unspecified) [CYSTINE],15.4 min
10,Nc1ncnc2c1ncn2C1OC(COP(=O)(O)OP(=O)([O-])OCC2OC([n+]3cccc(C(=O)O)c3)C(O)C2O)C(O)C1OP(=O)(O)O (stereo unspecified) [NICOTINIC ACID ADENINE DINUCLEOTIDE PHOSPHATE],15.3 min
11,NCCc1ccc(O)cc1 [TYRAMINE],11.3 min
12,COc1cc(C(O)C(=O)O)ccc1O (stereo unspecified) [3-METHOXY-4-HYDROXYMANDELATE],4.88 min
13,Nc1ccnc(=O)[nH]1 [CYTOSINE],12 min
14,Nc1ncccc1C(=O)O [2-Aminopyridine-3-carboxylic acid],8.8 min
15,Cc1ncc(CO)c(C(=O)O)c1O [4-PYRIDOXATE],2.22 min
16,Nc1ncnc2c1ncn2C1CC(O)C(COP(=O)(O)O)O1 (stereo unspecified) [DEOXYADENOSINE MONOPHOSPHATE],13.3 min
17,OC1CCCCC1O (stereo not drawn) [TRANS-CYCLOHEXANEDIOL],1.85 min
18,O=Cc1cccc(O)c1 [3-HYDROXYBENZALDEHYDE],1.75 min
19,O=C1OC(C(O)CO)C(O)=C1O (stereo unspecified) [ASCORBATE],10.5 min
20,NCC[Se][Se]CCN [SELENOCYSTAMINE],16.9 min
21,Nc1nc2c(ncn2C2OC(COP(=O)(O)OP(=O)(O)O)C(O)C2O)c(=O)[nH]1 (stereo unspecified) [GUANOSINE DIPHOSPHATE],15.4 min
22,CCCCCCCCC=CCCCCCCCC(=O)OCC(O)COP(=O)(O)OCCN (stereo unspecified) [18-1_LysoPE],10.3 min
